Each molecule was assayed against human BACE1 (Homo sapiens, UniProt P56817) (assay: Fluorescent kinetic assay, evaluation of BACE1 binding affinity of test compounds). Conditions: 10 nM human BACE1, 25 μM substrate WABC-6, pH 4.5, room temperature; read-out: BACE1 IC50.
Assay type: biochemical
Protocol: Concentration is determined by absorbance at 354 nm using an extinction coefficient of 18172 M^-1 cm^-1, the concentration of stock substrate is corrected, and the substrate stock stored in small aliquots in -80° C. […] Determination of Stock Enzyme Concentration: the stock concentration of each enzyme is determined by absorbance at 280 nm using an of 64150 M^-1 cm^-1 for hBACE1 and MuBACE1, 62870 M^-1 cm^-1 for hBACE2 in 6 M Guanidinium Hydrochloride (from Research Organics, Cat. # 5134G-2), pH 6. […] Biochem. 182, 319-326). Dilution and mixing steps: total reaction volume: 100 μL 2× inhibitor dilutions in buffer A (66.7 mM Na-Acetate, pH 4.5, 0.0667% CHAPS) were prepared, 4× enzyme dilution in buffer A (66.7 mM Na-Acetate, pH 4.5, 0.0667% CHAPS) were prepared, 100 μM substrate dilution in 1×PBS was prepared, and 50 μL 2× Inhibitor, 25 μL 100 μM substrate are added to each well of 96-well plate (from DYNEX Technologies, VWR #: 11311-046), immediately followed by 25 μL 4× enzyme (added to the inhibitor and substrate mix), and the fluorescence readings are initiated.

Sequence of human BACE1 (P56817 46-501): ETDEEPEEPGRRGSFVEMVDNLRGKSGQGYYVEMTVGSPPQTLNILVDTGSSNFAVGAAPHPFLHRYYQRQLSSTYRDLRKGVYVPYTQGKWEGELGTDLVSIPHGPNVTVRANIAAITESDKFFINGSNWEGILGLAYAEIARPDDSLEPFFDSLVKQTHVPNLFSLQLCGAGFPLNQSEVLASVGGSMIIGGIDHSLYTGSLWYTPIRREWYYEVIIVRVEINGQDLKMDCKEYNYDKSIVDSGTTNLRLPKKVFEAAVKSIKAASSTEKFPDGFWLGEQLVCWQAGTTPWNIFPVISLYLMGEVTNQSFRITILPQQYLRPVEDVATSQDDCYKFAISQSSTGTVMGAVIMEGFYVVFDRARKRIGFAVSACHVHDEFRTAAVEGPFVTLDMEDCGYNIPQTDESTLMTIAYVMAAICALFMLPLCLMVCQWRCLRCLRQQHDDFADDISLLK

Row | IC50 | SMILES
1 | 0.11 to 1 µM | COCC#Cc1cccc([C@]2(c3ccc(OC(F)F)c(C4CC4)c3)N=C(N)N(C)C2=O)c1 (single isomer, unassigned) [Example 182]
2 | < 0.1 µM | CCc1cc([C@]2(c3ccc(F)c(C#CCC(C)C)c3)N=C(N)N(C)C2=O)ccc1OC(F)F [Example 150, (5R)-2-Amino-5-[4-(difluoromethoxy)-3-ethylphenyl]-5-[4-fluoro-3-(4-methylpent-1-yn-1-yl)phenyl]-3-methyl-3,5-dihydro-4H-imidazol-4-one]
3 | < 0.1 µM | CN1C(=O)[C@](c2cccc(C#CC3CC3)c2)(c2ccc(OC(F)F)c(C3CC3)c2)N=C1N (single isomer, unassigned) [Example 177]
4 | < 0.1 µM | CN1C(=O)C(c2ccc(F)c(OCCCF)c2)(c2ccc(OC(F)F)c(C3CC3)c2)N=C1N (centres unmarked) [Example 85, 2-amino-5-[3-cyclopropyl-4-(difluoromethoxy)phenyl]-5-[4-fluoro-3-(3-fluoropropoxy)phenyl]-3-methyl-3,5-dihydro-4H-imidazol-4-one]
5 | < 0.1 µM | CC#Cc1cccc(C2(c3ccc(OC(F)F)c(C4CC4)c3)N=C(N)N(C)C2=O)c1 (centres unmarked) [Example 168, 2-amino-4-(3-cyclopropyl-4-(difluoromethoxy)phenyl)-1-methyl-4-(3-(prop-1-ynyl)phenyl)-1H-imidazol-5(4H)-one]
6 | < 0.1 µM | COCC/C=C/c1cccc(C2(c3ccc(OC(F)F)c(C)c3)N=C(N)N(C)C2=O)c1 (centres unmarked) [Example 64, 2-Amino-5-[4-(difluoromethoxy)-3-methylphenyl]-5-[3-((E)-4-methoxybut-1-enyl)phenyl]-3-methyl-3,5-dihydro-4H-imidazol-4-one]
7 | < 0.1 µM | CCc1cc(C2(c3ccc(F)c(OCCC(F)F)c3)N=C(N)N(C)C2=O)ccc1OC(F)F (centres unmarked) [Example 134, 2-Amino-5-[4-(difluoromethoxy)-3-ethylphenyl]-5-[3-(3,3-difluoropropoxy)-4-fluorophenyl]-3-methyl-3,5-dihydro-4H-imidazol-4-one]
8 | < 0.1 µM | CN1C(=O)[C@](c2ccc(F)c(OCCCF)c2)(c2ccc(OC(F)F)c(C3CC3)c2)N=C1N (single isomer, unassigned) [Example 86]
9 | < 0.1 µM | CCCC#Cc1cc(C2(c3ccc(OC(F)F)c(CCF)c3)N=C(N)N(C)C2=O)ccc1F (centres unmarked) [Example 88, 2-amino-5-[4-(difluoromethoxy)-3-(2-fluoroethyl)phenyl]-5-(4-fluoro-3-pent-1-yn-1-ylphenyl)-3-methyl-3,5-dihydro-4H-imidazol-4-one]
10 | < 0.1 µM | Cc1cc(C2(c3cccc(OCCC(F)F)c3)N=C(N)N(C)C2=O)ccc1OC(F)F (centres unmarked) [Example 126, 2-Amino-5-[4-(difluoromethoxy)-3-methylphenyl]-5-[3-(3,3-difluoropropoxy)phenyl]-3-methyl-3,5-dihydro-4H-imidazol-4-one]
11 | < 0.1 µM | COCC#Cc1cccc(C2(c3ccc(OC(F)F)c(C4CC4)c3)N=C(N)N(C)C2=O)c1 (centres unmarked) [Example 180, 2-amino-4-(3-cyclopropyl-4-(difluoromethoxy)phenyl)-4-(3-(3-methoxyprop-1-ynyl)phenyl)-1-methyl-1H-imidazol-5(4H)-one]
12 | < 0.1 µM | Cc1cc([C@]2(c3cccc(OCCC(F)F)c3)N=C(N)N(C)C2=O)ccc1OC(F)F [Example 127, (5R)-2-Amino-5-[4-(difluoromethoxy)-3-methylphenyl]-5-[3-(3,3-difluoropropoxy)phenyl]-3-methyl-3,5-dihydro-4H-imidazol-4-one]
13 | > 1 µM | CCc1cc([C@@]2(c3ccc(F)c(OCCC(F)F)c3)N=C(N)N(C)C2=O)ccc1OC(F)F [Example 135, (5S)-2-Amino-5-[4-(difluoromethoxy)-3-ethylphenyl]-5-[3-(3,3-difluoropropoxy)-4-fluorophenyl]-3-methyl-3,5-dihydro-4H-imidazol-4-one]
14 | > 1 µM | Cc1cc([C@@]2(c3cccc(C#CCCF)c3)N=C(N)N(C)C2=O)ccc1OC(F)F [Example 204, (5R)-2-amino-5-[4-(difluoromethoxy)-3-methylphenyl]-5-[3-(4-fluorobut-1-yn-1-yl)phenyl]-3-methyl-3,5-dihydro-4H-imidazol-4-one]
15 | < 0.1 µM | COCCCC#Cc1cccc(C2(c3ccc(OC(F)F)c(C4CC4)c3)N=C(N)N(C)C2=O)c1 (centres unmarked) [Example 186, 2-amino-4-(3-cyclopropyl-4-(difluoromethoxy)phenyl)-4-(3-(5-methoxypent-1-ynyl)phenyl)-1-methyl-1H-imidazol-5(4H)-one]
16 | 0.11 to 1 µM | CCc1cc([C@@]2(c3ccc(F)c(C#CC4CC4)c3)N=C(N)N(C)C2=O)ccc1OC(F)F [Example 148, (5S)-2-Amino-5-[3-(cyclopropylethynyl)-4-fluorophenyl]-5-[4-(difluoromethoxy)-3-ethylphenyl]-3-methyl-3,5-dihydro-4H-imidazol-4-one]
17 | 0.11 to 1 µM | COCC#Cc1cccc([C@]2(c3ccc(OC(F)F)c(C)c3)N=C(N)N(C)C2=O)c1 [Example 70, (5R)-2-Amino-4-(4-(difluoromethoxy)-3-methylphenyl)-4-(3-(3-methoxyprop-1-ynyl)phenyl)-1-methyl-1H-imidazol-5(4H)-one]
18 | < 0.1 µM | COCCC#Cc1cccc([C@@]2(c3ccc(OC(F)F)c(C4CC4)c3)N=C(N)N(C)C2=O)c1 (single isomer, unassigned) [Example 185]
19 | < 0.1 µM | Cc1cc([C@]2(c3ccc(F)c(OCCCF)c3)N=C(N)N(C)C2=O)ccc1OC(F)F [Example 111, (5R)-2-Amino-5-[4-(difluoromethoxy)-3-methylphenyl]-5-[4-fluoro-3-(3-fluoropropoxy)phenyl]-3-methyl-3,5-dihydro-4H-imidazol-4-one]
20 | < 0.1 µM | Cc1cc(C2(c3ccc(F)c(OCCF)c3)N=C(N)N(C)C2=O)ccc1OC(F)F (centres unmarked) [Example 109, 2-Amino-5-[4-(difluoromethoxy)-3-methylphenyl]-5-[4-fluoro-3-(2-fluoroethoxy)phenyl]-3-methyl-3,5-dihydro-4H-imidazol-4-one]
21 | > 1 µM | CN1C(=O)[C@@](c2ccccc2)(c2ccc(OC(F)F)c(CCF)c2)N=C1N (single isomer, unassigned) [Example 76]
22 | < 0.1 µM | CCCOc1cccc(C2(c3ccc(OC(F)F)c(Cl)c3)N=C(N)N(C)C2=O)c1 (centres unmarked) [Example 39, 2-Amino-5-[3-chloro-4-(difluoromethoxy)phenyl]-3-methyl-5-(3-propoxyphenyl)-3,5-dihydro-4H-imidazol-4-one]
23 | < 0.1 µM | C#Cc1cccc(C2(c3ccc(OC(F)F)c(C4CC4)c3)N=C(N)N(C)C2=O)c1 (centres unmarked) [Example 167, 2-amino-4-(3-cyclopropyl-4-(difluoromethoxy)phenyl)-4-(3-ethynylphenyl)-1-methyl-1H-imidazol-5(4H)-one]
24 | < 0.1 µM | CN1C(=O)C(c2ccc(F)c(OCC(F)F)c2)(c2ccc(OC(F)F)c(C3CC3)c2)N=C1N (centres unmarked) [Example 123, 2-Amino-5-[3-cyclopropyl-4-(difluoromethoxy)phenyl]-5-[3-(2,2-difluoroethoxy)-4-fluorophenyl]-3-methyl-3,5-dihydro-4H-imidazol-4-one]
25 | < 0.1 µM | CCc1cc([C@]2(c3cccc(C#CCF)c3)N=C(N)N(C)C2=O)ccc1OC(F)F [Example 161, (5S)-2-Amino-5-[4-(difluoromethoxy)-3-ethylphenyl]-5-[3-(3-fluoroprop-1-yn-1-yl)phenyl]-3-methyl-3,5-dihydro-4H-imidazol-4-one]
26 | < 0.1 µM | CN1C(=O)C(c2ccc(OC(F)F)c(Cl)c2)(c2ccc(F)c(OCCF)c2)N=C1N (centres unmarked) [Example 99, 2-Amino-5-[3-chloro-4-(difluoromethoxy)phenyl]-5-[4-fluoro-3-(2-fluoroethoxy)phenyl]-3-methyl-3,5-dihydro-4H-imidazol-4-one]
27 | 0.11 to 1 µM | CN1C(=O)C(c2ccccc2)(c2ccc(OC(F)F)c(CCF)c2)N=C1N (centres unmarked) [Example 74, 2-amino-5-[4-(difluoromethoxy)-3-(2-fluoroethyl)phenyl]-3-methyl-5-phenyl-3,5-dihydro-4H-imidazol-4-one]

Row | SMILES | IC50
28 | CC(C)c1cc(C2(c3ccccc3)N=C(N)N(C)C2=O)ccc1OC(F)F (stereo in doubt) [Example 138, (5R)-2-Amino-5-[4-(difluoromethoxy)-3-isopropylphenyl]-3-methyl-5-phenyl-3,5-dihydro-4H-imidazol-4-one] | < 0.1 µM

Same assay, conditions: BACE1 IC50 μM, 10 nM human BACE1, 25 μM substrate WABC-6, pH 4.5, room temperature

Row | SMILES | IC50
29 | CCc1cc(C2(c3ccc(F)cc3)N=C(N)N(C)C2=O)ccc1OC(F)F (centres unmarked) [Example 7, 2-Amino-4-[4-(difluoromethoxy)-3-ethylphenyl]-4-(4-fluorophenyl)-1-methyl-1H-imidazol-5(4H)-one] | 0.11 to 1 µM
30 | Cc1cc(C2(c3ccc(F)c(Br)c3)N=C(N)N(C)C2=O)ccc1OC(F)F (centres unmarked) [Example 32] | < 0.1 µM
31 | CN1C(=O)C(c2ccccc2)(c2ccc(OC(F)F)c(C(F)(F)F)c2)N=C1N (centres unmarked) [Example 12, 2-Amino-5-[4-(difluoromethoxy)-3-(trifluoromethyl)phenyl]-3-methyl-5-phenyl-3,5-dihydro-4H-imidazol-4-one] | 0.11 to 1 µM
32 | CN1C(=O)[C@@](c2ccccc2)(c2ccc(OC(F)F)c(Cl)c2)N=C1N [Example 28, (5R)-2-Amino-5-[3-chloro-4-(difluoromethoxy)phenyl]-1-methyl-5-phenyl-3,5-dihydro-4H-imidazol-4-one] | > 1 µM
